This note sets out measurements from patent publication US10294202B2, “Pyrrolidinones as herbicides” (FMC Corporation, priority 2013, dated 2019).

One assay deals with surinam grass. Put plainly: Test C pre-/postemergence herbicide test. The class given is in vivo, Brachiaria decumbens. The conditions noted are these: Preemergence. The source says: (§1) Seeds of plant species selected from blackgrass (Alopecurus myosuroides), ryegrass, Italian (Italian ryegrass, Lolium multiflorum), wheat (winter wheat, Triticum aestivum), galium (catchweed bedstraw, Galium aparine), corn (Zea mays), crabgrass, large (large crabgrass, Digitaria sanguinalis), foxtail, giant (giant foxtail, Setaria faberii), johnsongrass (Sorghum halepense), lambsquarters (Chenopodium album), morningglory (Ipomoea coccinea), nutsedge, yellow (yellow nutsedge, Cyperus esculentus), pigweed (Amaranthus retroflexus), ragweed (common ragweed, Ambrosia elatior), soybean (Glycine max), barnyardgrass (Echinochloa crus-galli), oilseed rape (Brassica napus), waterhemp (common waterhemp, Amaranthus rudis), kochia (Kochia scoparia), oat, wild (wild oat, Avena fatua), surinam grass (Brachiaria decumbens), foxtail, green (green foxtail, Setaria viridis), goosegrass (Eleusine indica), bromegrass, downy (downy bromegrass, Bromus tectorum), nightshade (eastern black nightshade, Solanum ptycanthum), cocklebur (common cocklebur, Xanthium strumarium), cupgrass, woolly (woolly cupgrass, Eriochloa villosa), bermudagrass (Cynodon dactylon), sunflower, (common oilseed sunflower, Helianthus annuus), Russian thistle (Salsola kali) and velvetleaf (Abutilon theophrasti) were planted into a blend of loam soil and sand and treated preemergence with test chemicals formulated in a non-phytotoxic solvent mixture which included a surfactant. At the same time, plants selected from these crop and weed species and also barley (winter barley, Hordeum vulgare), […]), chickweed (common chickweed, Stellaria media), deadnettle (henbit deadnettle, Lamium amplexicaule), and canarygrass (littleseed canarygrass, Phalaris minor) were planted in pots containing Redi-Earth® planting medium (Scotts Company, 14111 Scottslawn Road, Marysville, Ohio 43041) comprising spaghnum peat moss, vermiculite, wetting agent and starter nutrients and treated with postemergence applications of test chemicals formulated in the same manner. Plants ranged in height from 2 to 18 cm (1- to 4-leaf stage) for postemergence treatments. Treated plants and controls were maintained in a greenhouse for 13 to 15 days, after which time all species were compared to controls and visually evaluated. Plant response ratings, summarized in Table C, are based on a scale of 0 to 100 where 0 is no effect and 100 is complete control. A dash (-) response means no test result.

The subject of another assay is foxtail, green. Briefly: Test C pre-/postemergence herbicide test. Type of assay: in vivo, Setaria viridis. The conditions noted are these: Preemergence.
Text: as §1

The next assay deals with goosegrass. Briefly: Test C pre-/postemergence herbicide test. The class given is in vivo, Eleusine indica. The conditions noted are these: Preemergence.
Text: as §1

Assay [1] deals with bromegrass, downy. Put plainly: Test C pre-/postemergence herbicide test. Type of assay: in vivo, Bromus tectorum. The conditions noted are these: Preemergence.
Text: as §1

The subject of the next assay is nightshade. Put plainly: Test C pre-/postemergence herbicide test. Type of assay: in vivo, Solanum ptycanthum. The conditions noted are these: Preemergence.
Text: as §1

A further assay concerns cocklebur. Put plainly: Test C pre-/postemergence herbicide test. To be noted: Preemergence, scale 0 to 100 (0 no effect, 100 complete control). Type of assay: in vivo, Xanthium strumarium.
Text: as §1

The next assay has as its system cupgrass, woolly. Briefly: Test C pre-/postemergence herbicide test. Type of assay: in vivo, Eriochloa villosa. To be noted: Preemergence.
Text: as §1

For another assay, the system named is bermudagrass. Put plainly: Test C pre-/postemergence herbicide test. To be noted: Preemergence. Type of assay: in vivo, Cynodon dactylon.
Text: as §1

In another assay the test system is sunflower. Put plainly: Test C pre-/postemergence herbicide test. The conditions noted are these: Preemergence. Type of assay: in vivo, Helianthus annuus.
Text: as §1

The subject of a further assay is chickweed. Put plainly: Test D pre-/postemergence herbicide test. Type of assay: in vivo, Stellaria media. To be noted: for Plant response rating: Chickweed, scale 0 to 100; for Plant response rating, Chickweed: scale 0 to 100 (0 no effect, 100 complete control). The source says:
(§2) Seeds of plant species selected from bluegrass (annual bluegrass, Poa annua), blackgrass (Alopecurus myosuroides), canarygrass (littleseed canarygrass, Phalaris minor), chickweed (common chickweed, Stellaria media), galium (catchweed bedstraw, Galium aparine), bromegrass, downy (downy bromegrass, Bromus tectorum), field poppy (Papaver rhoeas), field violet (Viola arvensis), foxtail, green (green foxtail, Setaria viridis), deadnettle (henbit deadnettle, Lamium amplexicaule), ryegrass, Italian (Italian ryegrass, Lolium multiflorum), kochia (Kochia scoparia), lambsquarters (Chenopodium album), oilseed rape (Brassica napus), pigweed (Amaranthus retroflexus), chamomile (scentless chamomile, Matricaria inodora), Russian thistle (Salsola kali), speedwell (bird's-eye speedwell, Veronica persica), barley, spring (spring barley, Hordeum vulgare), wheat, spring (spring wheat, Triticum aestivum), buckwheat, wild (wild buckwheat, Polygonum convolvulus), mustard, wild (wild mustard, Sinapis arvensis), oat, wild (wild oat, Avena fatua), radish, wild (wild radish, Raphanus raphanistrum), […]), barley, winter (winter barley, Hordeum vulgare), and wheat, winter (winter wheat, Triticum aestivum) were planted into a silt loam soil and treated preemergence with test chemicals formulated in a non-phytotoxic solvent mixture which included a surfactant. At the same time, these species were planted in pots containing Redi-Earth® planting medium (Scotts Company, 14111 Scottslawn Road, Marysville, Ohio 43041) comprising spaghnum peat moss, vermiculite, wetting agent and starter nutrients and treated with postemergence applications of the test chemicals formulated in the same manner. Plants ranged in height from 2 to 18 cm (1- to 4-leaf stage). Treated plants and controls were maintained in a controlled growth environment for 7 to 21 days after which time all species were compared to controls and visually evaluated. Plant response ratings, summarized in Table D, are based on a scale of 0 to 100 where 0 is no effect and 100 is complete control. A dash (-) response means no test result.

The test system of assay [2] is bromegrass, downy. Briefly: Test D pre-/postemergence herbicide test. Type of assay: in vivo, Bromus tectorum. The conditions noted are these: for Plant response rating: Bromegrass, Downy, scale 0 to 100; for Plant response rating, Bromegrass, Downy: scale 0 to 100 (0 no effect, 100 complete control).
Text: as §2

Where [3] appears, read: 125 g ai/ha, scale 0 to 100 (0 no effect, 100 complete control).
Where [4] appears, read: 31 g ai/ha, scale 0 to 100 (0 no effect, 100 complete control).
Where [5] appears, read: 250 g ai/ha, scale 0 to 100 (0 no effect, 100 complete control).

With `O=C1NCC(c2ccc(Cl)c(F)c2)C1C(=O)Nc1ccccc1F` (stereo not shown) [Compound 53], the “Plant response rating, Surinam Grass” value with surinam grass (62 g ai/ha, scale 0 to 100) came to 25; in the assay on surinam grass (setting [3]) it was 75. Moreover, the “Foxtail, Green plant response rating” value in the assay with foxtail, green (setting [4]) is listed as 30. Further, the “Plant response rating, Foxtail, Green” value in the assay on foxtail, green (62 g ai/ha, scale 0 to 100) was found to be 90; in the assay on foxtail, green (setting [3]), 90; with foxtail, green (setting [5]), 90. In addition, in the assay on goosegrass (setting [4]), the “Goosegrass plant response rating” value is 0. The “Plant response rating, Goosegrass” value is on record as 10 in the assay with goosegrass (62 g ai/ha, scale 0 to 100) and 30 in the assay with goosegrass (setting [3]). Also, the “Bromegrass, Downy plant response rating” value in the assay on bromegrass, downy [1] (setting [4]) was found to be 0. In addition, the “Plant response rating, Bromegrass, Downy” value with bromegrass, downy [1] (62 g ai/ha, scale 0 to 100) amounted to 0; in the assay on bromegrass, downy [1] (setting [3]), 0; in the assay on bromegrass, downy [1] (setting [5]), 0. The “Plant response rating, Nightshade” value came to 0 in the assay with nightshade (62 g ai/ha, scale 0 to 100) and 40 in the assay on nightshade (setting [3]). Further, the “Plant response rating, Cocklebur” value in the assay with cocklebur (125 g ai/ha) and in the assay on cocklebur (250 g ai/ha) was 5 in each case. Moreover, in the assay with cupgrass, woolly (setting [4]), the “Cupgrass, Woolly plant response rating” value is given as 35. In addition, the “Plant response rating, Cupgrass, Woolly” value in the assay with cupgrass, woolly (62 g ai/ha, scale 0 to 100) was 65; in the assay on cupgrass, woolly (setting [3]), 80; in the assay with cupgrass, woolly (setting [5]), 80. The “Bermudagrass plant response rating” value with bermudagrass (setting [4]) turned out to be 40. Further, the “Plant response rating, Bermudagrass” value worked out at 40 in the assay with bermudagrass (62 g ai/ha, scale 0 to 100); 50 in the assay on bermudagrass (setting [3]); 50 with bermudagrass (setting [5]). Further, the “Plant response rating Sunflower” value in the assay on sunflower (62 g ai/ha, scale 0 to 100) is on record as 15; with sunflower (setting [3]), 20.

As for `O=C1NCC(c2ccc(F)c(F)c2)C1C(=O)Nc1cccc(F)c1` (racemic) [Compound 12], the Plant response rating amounted to 0 in the assay on chickweed (Postemergence, 16 g ai/ha); 0 in the assay on chickweed (Postemergence, 31 g ai/ha); 0 in the assay with chickweed (Postemergence, 62 g ai/ha); 20 in the assay on chickweed (Postemergence, 125 g ai/ha); 30 in the assay on chickweed (Postemergence, 250 g ai/ha); 0 in the assay with chickweed (Preemergence, 125 g ai/ha). Moreover, the Plant response rating in the assay with chickweed (Preemergence, 250 g ai/ha) stood at 0; in the assay with bromegrass, downy [2] (Postemergence, 16 g ai/ha) it was 0; in the assay with bromegrass, downy [2] (Postemergence, 31 g ai/ha), 0; with bromegrass, downy [2] (Postemergence, 62 g ai/ha), 0; with bromegrass, downy [2] (Postemergence, 125 g ai/ha) it was 0; with bromegrass, downy [2] (Postemergence, 250 g ai/ha), 5. Also, the Plant response rating with bromegrass, downy [2] (Preemergence, 125 g ai/ha) is given as 0; in the assay on bromegrass, downy [2] (Preemergence, 250 g ai/ha), 10. In addition, the “Plant response rating, Chickweed” value with chickweed (Preemergence, 62 g ai/ha) turned out to be 0. Further, the “Plant response rating, Bromegrass, Downy” value is 0 in the assay on bromegrass, downy [2] (Preemergence, 31 g ai/ha); 0 in the assay with bromegrass, downy [2] (Preemergence, 62 g ai/ha); 0 in the assay with bromegrass, downy [2] (Preemergence, 16 g ai/ha).

`O=C1NCC(c2cccc(C(F)(F)F)c2)C1C(=O)Nc1cccc(F)c1F` (stereo not shown) [Compound 241]: the “Plant response rating, Chickweed” value in the assay on chickweed (Preemergence, 31 g ai/ha) was 90; in the assay with chickweed (Preemergence, 62 g ai/ha) it was 80; in the assay on chickweed (Preemergence, 125 g ai/ha) it was 95. Moreover, the Plant response rating is given as 100 in the assay on chickweed (Preemergence, 250 g ai/ha) and 60 with bromegrass, downy [2] (Preemergence, 250 g ai/ha). In addition, the “Plant response rating, Bromegrass, Downy” value amounted to 0 in the assay with bromegrass, downy [2] (Preemergence, 31 g ai/ha); 15 with bromegrass, downy [2] (Preemergence, 62 g ai/ha); 15 in the assay with bromegrass, downy [2] (Preemergence, 125 g ai/ha).

Take `O=C1NCC(c2cccc(C(F)(F)F)c2)C1C(=O)Nc1ccc(F)cc1F` (racemic) [Compound 207]: the “Plant response rating, Chickweed” value with chickweed (Preemergence, 31 g ai/ha) came to 60; in the assay on chickweed (Preemergence, 62 g ai/ha) it was 60; with chickweed (Preemergence, 125 g ai/ha), 70. In addition, the Plant response rating with chickweed (Preemergence, 250 g ai/ha) turned out to be 100; in the assay on bromegrass, downy [2] (Preemergence, 250 g ai/ha), 15. The “Plant response rating, Bromegrass, Downy” value came to 0 in the assay on bromegrass, downy [2] (Preemergence, 31 g ai/ha); 15 with bromegrass, downy [2] (Preemergence, 62 g ai/ha); 15 in the assay with bromegrass, downy [2] (Preemergence, 125 g ai/ha).
